Data set [1] concerns Plasmodium berghei. The data set is described as follows: Antiplasmodial activity against liver stage Plasmodium berghei infected in Huh7 cells assessed as inhibition of parasite infection incubated for 1 hr prior to infection measured at 24 hrs by luciferase reporter gene assay. Type of data set: functional, organism-based. The settings on record: Huh-7, Liver.
For data set [2], the system named is Plasmodium berghei. The data set is described as follows: Potency index, ratio of bulaquine IC50 to compound IC50 for liver stage Plasmodium berghei infected in Huh7 cells. Type of data set: functional, Huh-7.
Data set [3] concerns Plasmodium falciparum. The data set can be described thus: Antiplasmodial activity against chloroquine-resistant Plasmodium falciparum W2 infected in human erythrocytes after 48 hrs by flow cytometry. Type of data set: functional, organism-based. Particulars: W2, 48 h.
The nature of data set [4]: Cytotoxicity against human HuH7 cells infected with Plasmodium berghei assessed as cell proliferation at 1 to 10 uM by Alamar blue assay. Type of data set: cell-based. The settings on record: huh-7, 10 µM. (In general: Alamar Blue is a resazurin reagent that responds to reducing activity.)
Data set [5] in a line: Cytotoxicity against HEK293T cells assessed as cell viability after 48 hrs by MTT assay. Particulars: Homo sapiens, HEK-293T. Type of data set: cell-based. (Tetrazolium dyes change colour on reduction, which living cells bring about.)
Data set [6] has as its system Plasmodium falciparum. The data set is described as follows: Antiplasmodial activity against chloroquine-resistant Plasmodium falciparum W2 infected in human erythrocytes after 24 hrs by [3H]-hypoxanthine incorporation assay. Type of data set: functional, organism-based.

Some results are limits rather than exact numbers.

`CCCCOc1c(NCCCCCNc2cc(OC)cc3cccnc23)c(=O)c1=O`: the IC50 (as a rule, the concentration that inhibits the measured activity by half) in data set [1] is 2200 nM; in data set [3], > 10 µM; in data set [5], > 100 µM. Also, in data set [2], the “Ratio IC50” value is 4.3. The Activity result in data set [4] was “Non-toxic”.

On to `COc1cc(NC(C)CCCNc2c(NCCCC(C)Nc3cc(OC)cc4cccnc34)c(=O)c2=O)c2ncccc2c1` (configuration not stated), for which the IC50 in data set [1] worked out at 1300 nM. Also, the “Ratio IC50” value in data set [2] was found to be 4.3.

For the compound `CCCCOc1c(NCCCC(C)Nc2cc(OC)cc3cccnc23)c(=O)c1=O` (configuration not stated), the IC50 in data set [1] is 1300 nM. Besides, the “Ratio IC50” value in data set [2] is given as 4.3.

Turning to `COc1cc(NC(C)CCCN)c2ncccc2c1` (configuration not stated) [PRIMAQUINE], the IC50 in data set [1] turned out to be 9500 nM.

Take `COc1cc(NC(C)CCCN/C(C)=C2/CCOC2=O)c2ncccc2c1` (configuration not stated): the IC50 worked out at 1600 nM in data set [6] and 10000 nM in data set [1].

As for `COc1cc(NC(C)CCCNc2c(OC)c(=O)c2=O)c2ncccc2c1` (configuration not stated), the IC50 in data set [3] was > 10 µM. Also, in data set [4], the Activity entry is recorded as “Non-toxic”.

As to `CCOc1c(NCCCC(C)Nc2cc(OC)cc3cccnc23)c(=O)c1=O` (configuration not stated), the figures for the IC50 in data set [3] and in data set [5] were 7.3 µM and > 100 µM, respectively. Further, the Activity entry in data set [4] is reported as “Non-toxic”.

On to `CCCCOc1c(Nc2cc(OC)cc3cccnc23)c(=O)c1=O`, for which the IC50 in data set [3] is > 10 µM. Also, the Activity entry in data set [4] is recorded as “Non-toxic”.

In the case of `CCCCOc1c(NCCCNc2cc(OC)cc3cccnc23)c(=O)c1=O`, the results for the IC50 in data set [1], in data set [3] and in data set [5] were 1800 nM, 5.1 µM and > 100 µM, respectively. Also, the “Ratio IC50” value in data set [2] is 4.3. Also, the Activity result in data set [4] was “Non-toxic”.

As to `CCCCNc1c(NCCCC(C)Nc2cc(OC)cc3cccnc23)c(=O)c1=O` (configuration not stated), the IC50 in data set [3] was > 10 µM. Moreover, in data set [4], the Activity result is recorded as “Non-toxic”.

With `CCCCOc1c(NCCC(C)Nc2cc(OC)cc3cccnc23)c(=O)c1=O` (configuration not stated), the IC50 was 5.1 µM in data set [3] and > 100 µM in data set [5]. Besides, the Activity entry in data set [4] is on record as “Non-toxic”.

For `CCCCOc1c(NCCNc2cc(OC)cc3cccnc23)c(=O)c1=O`, the IC50 in data set [3] was 8.5 µM; in data set [5] it was > 100 µM. The Activity result in data set [4] is “Non-toxic”.

These data come from ChEMBL document CHEMBL3769361, “Novel squaramides with in vitro liver stage antiplasmodial activity” (Bioorg Med Chem, 2016).
